Test results from patent US20100130432A1, “Non-Natural Amino Acids and Neurotensin Analogues Thereof” (priority 2005, published 2010).
Entries after “also recorded” stand apart in the source; their conditions may differ. Non-standard residues stand in square brackets, D forms with d. Residues, ends and D or L forms follow the SMILES beside them. *: point of attachment. Tle = CC(C)(C)[C@H](N)C(=O)O; X1 = C[C@@H](CCCCCN)C(=O)*

Assays:
NTR-1 [1] = molecular target: T1, NTR-1 (Homo sapiens, UniProt P30989); experiment: Competitive NTR binding versus radiolabeled NT[8-13]
T1 sequence (P30989 whole entry, species assumed): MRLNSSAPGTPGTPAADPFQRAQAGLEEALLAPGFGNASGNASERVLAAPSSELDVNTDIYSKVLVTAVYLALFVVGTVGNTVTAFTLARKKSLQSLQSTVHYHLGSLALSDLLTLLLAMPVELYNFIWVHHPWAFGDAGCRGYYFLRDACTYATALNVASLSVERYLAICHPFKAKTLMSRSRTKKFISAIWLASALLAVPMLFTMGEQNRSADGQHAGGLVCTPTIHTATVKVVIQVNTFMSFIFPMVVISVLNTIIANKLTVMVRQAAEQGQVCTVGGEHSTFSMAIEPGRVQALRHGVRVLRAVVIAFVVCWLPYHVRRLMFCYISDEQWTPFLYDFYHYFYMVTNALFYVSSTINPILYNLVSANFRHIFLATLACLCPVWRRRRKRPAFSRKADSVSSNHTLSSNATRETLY

rats [2] = experiment: Maximum tolerated dose; details: rat, in vivo
[3] = intra-stomach
Method: These samples were used for the determination of plasma drug by LC/MS/MS for estimating pharmacokinetic parameters and segmental absorption. The bioavailability of intra-stomach, intra-duodenum, intra-jejunum, intra-colon administration relative to intravenous administration and gavage was calculated.

rats [4] = experiment: Hotplate assay; type: in vivo, rat
Text: Animals. Experimentally naïve male Sprague-Dawley rats from Charles River Laboratories, Raleigh, N.C. (230-260 g) or Harlan, Prattville Ala. (240-280 g), were maintained 4 per cage in animal quarters on a regular light/dark cycle (lights on 0600-1800) with ad libitum food and water for approximately 1 week before the experiment. The range of body weights on the 2 days of testing was 230-260 grams. The experiment was done on one day, with animals allowed to recover for three days before experiments are repeated.
Peptide Preparation. Test articles are prepared at the desired concentration in saline for either IP injection or gavage administration with N=6 for each dose and vehicle. Morphine (5 mg/kg) is used as a control for certain protocols. […] Apomorphine HCl (Sigma-Aldrich, St. Louis, Mo.) was dissolved in distilled water at a concentration of 5 mg/mL within 40 minutes of administration for injection at 1 mL/kg S.C. to give a dose of 5 mg/kg. When complete ED50s are determined, dosing range of the peptide will be 10, 3, 1, 0.3, 0.1 of the estimated ED50, covering two log orders of range.
The Hotplate Assay. The hotplate assay, a standard rat model for […] pain (see Le Bars et al., Pharmacol. Rev. 53: 597-652 (2001) and Chapman et al., Pain 22:1-31 (2002)), was performed as follows. A hotplate maintained at 52° C. to 53° C. was enclosed on four sides in a plexiglass chamber that extended 6 in. above the plate. Animals were placed on the plate, and the latency between the time a rat was placed on the surface and when it lifts or licks a back paw (indicative of pain sensation) was determined. Animals are removed immediately at the cutoff latency of 30 seconds. Assays are scored as the percent of maximal possible effect (% MPE) defined as 100%, which corresponds to the rats remaining on the hotplate for 30 seconds without responding. Thus, % MPE are calculated using the following equation: % MPE=[(post-drug latency−pre-drug latency)/(cut-off pre-drug latency)]×100%. N=6 or greater for all experiments.
Tmax indicates the time after dosing in which a maximum response was observed.

NTR-1 [5] = molecular target: T1, NTR-1; experiment: Functional agonism: induction of cAMP and inositol phosphate production; type: cell-based
rats [6] = experiment: Catalepsy, horizontal bar test
Method: Cataleptic Analysis. […] To circumvent these potential confounding factors, tests are performed on an animal only once in a quiet, controlled environment.
Catalepsy Assessment. […] Rats were given an IP injection of peptide (5 mg/Kg), saline, or haloperidol (1 mg/kg). After 3 hours, catalepsy was measured using the horizontal bar test. Briefly, the front paws were placed directly on a horizontal bar 5 mm in diameter placed 7.5 cm above the cage floor. The rat was held in this position for 3 sec and then released. The time from release until the paws return to the cage floor was measured and recorded. A cut-off time of 30 sec was observed; this indicated a fully cataleptic animal as cataleptic animals are frozen to the bar. […] Measures were repeated every 30 min for 4 hr. Data are means±SEM (p<0.01).

mouse bone marrow cells = experiment: Micronucleus study; type: in vivo; details: initial data
Method: Genetic Toxicology. […] Experimental protocols are as follows.
In the micronucleus study, 90 CD-1 mice used in the study consisted of 10/sex/group in Groups 1-4 (control, low-, mid-, and high-dose) and 5/sex in the positive control group. Test peptide as administered orally, the positive control, Cyclophosphamide at 80 mg/kg, as administered orally. Approximately 24 and 48 hours after dosing, mice were killed and bone marrow obtained from both femurs. A slide of a bone marrow suspension was prepared, stained with Wright-Giemsa stain, dried, and scored blind. The number of polychromatic erythrocytes (PCE) among the total erythrocytes (PCE+normochromatic erythrocytes (NCE)) were determined for each animal by counting at least 200 erythrocytes. The number of micronucleated polychromatic erythrocytes (MPCE) then were scored for 2000 PCE per animal. A positive result was obtained, if there is a positive dose-response trend or statistically significant increase in the number of MPCE at one or more dose levels compared to controls.

NTR-2 [7] = molecular target: T2, NTR-2 (Homo sapiens, UniProt O95665); experiment: Competitive NTR binding versus radiolabeled NT[8-13]
T2 sequence (O95665 whole entry, species assumed): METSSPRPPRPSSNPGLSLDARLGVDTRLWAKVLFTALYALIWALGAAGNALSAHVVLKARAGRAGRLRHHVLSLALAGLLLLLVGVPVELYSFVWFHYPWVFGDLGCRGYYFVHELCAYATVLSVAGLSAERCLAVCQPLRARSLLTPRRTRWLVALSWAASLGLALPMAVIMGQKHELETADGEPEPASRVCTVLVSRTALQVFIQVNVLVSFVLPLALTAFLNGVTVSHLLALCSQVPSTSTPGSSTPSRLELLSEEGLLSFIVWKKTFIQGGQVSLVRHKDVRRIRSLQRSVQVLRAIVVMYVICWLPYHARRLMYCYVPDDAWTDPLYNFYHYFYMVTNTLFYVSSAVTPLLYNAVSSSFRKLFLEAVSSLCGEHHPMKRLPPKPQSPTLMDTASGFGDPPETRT

rats [8] = experiment: d-Amphetamine induced hyperlocomotion / locomotor activity chambers; type: in vivo, rat
Text: Sound- and light-attenuated locomotor cages are used to measure the ability of potential candidates to decrease d-amphetamine-induced hyperactivity.
d-Amphetamine induced hyperlocomotion. Experimentally I male Sprague-Dawley rats were housed as described above. Rats were handled for three days prior to testing to minimize experimenter induced hyperlocomotion on test day. For experiments, sound- and light-attenuated automated photocell beam activity chambers (AccuScan Instruments, Inc., Columbus, Ohio) were used to measure locomotion. Cages were connected to a VersaMax Analyzer (AccuScan) in conjunction with an IBM computer using VersaMax 1.80-0146 software (AccuScan) to record vertical and horizontal activity. Total activity values recorded were the sum of vertical and horizontal activity. […]
Rats were placed in the activity chambers for 30 minutes to habituate and establish baseline activity levels. Then, rats were removed and given an IP or oral dose of peptide (N=7) or saline (N=8) and returned to the chamber to establish the peptide's effect on spontaneous activity levels. About 30 minutes after administration, rats were removed and given an IP injection of d-amphetamine (1 mg/kg) or vehicle and returned to the chamber for a further 1 hr to assess the effect of the peptide on induced hyperlocomotion.
Chronic Testing Protocols.
Separate two-factor ANOVAs for DOSE X TIME were performed for each different time-phase of the assay. Phases for the IP dosing and oral dosing experiments consisted of habituation (time points 10-60), drug (time points 70-120), and amphetamine (time points 130-240).

[9] = molecular target: hERG (human ether-a-go-go related gene) channels (Homo sapiens, UniProt Q12809); details: initial results
Sequence of hERG (human ether-a-go-go related gene) channels (Q12809 whole entry): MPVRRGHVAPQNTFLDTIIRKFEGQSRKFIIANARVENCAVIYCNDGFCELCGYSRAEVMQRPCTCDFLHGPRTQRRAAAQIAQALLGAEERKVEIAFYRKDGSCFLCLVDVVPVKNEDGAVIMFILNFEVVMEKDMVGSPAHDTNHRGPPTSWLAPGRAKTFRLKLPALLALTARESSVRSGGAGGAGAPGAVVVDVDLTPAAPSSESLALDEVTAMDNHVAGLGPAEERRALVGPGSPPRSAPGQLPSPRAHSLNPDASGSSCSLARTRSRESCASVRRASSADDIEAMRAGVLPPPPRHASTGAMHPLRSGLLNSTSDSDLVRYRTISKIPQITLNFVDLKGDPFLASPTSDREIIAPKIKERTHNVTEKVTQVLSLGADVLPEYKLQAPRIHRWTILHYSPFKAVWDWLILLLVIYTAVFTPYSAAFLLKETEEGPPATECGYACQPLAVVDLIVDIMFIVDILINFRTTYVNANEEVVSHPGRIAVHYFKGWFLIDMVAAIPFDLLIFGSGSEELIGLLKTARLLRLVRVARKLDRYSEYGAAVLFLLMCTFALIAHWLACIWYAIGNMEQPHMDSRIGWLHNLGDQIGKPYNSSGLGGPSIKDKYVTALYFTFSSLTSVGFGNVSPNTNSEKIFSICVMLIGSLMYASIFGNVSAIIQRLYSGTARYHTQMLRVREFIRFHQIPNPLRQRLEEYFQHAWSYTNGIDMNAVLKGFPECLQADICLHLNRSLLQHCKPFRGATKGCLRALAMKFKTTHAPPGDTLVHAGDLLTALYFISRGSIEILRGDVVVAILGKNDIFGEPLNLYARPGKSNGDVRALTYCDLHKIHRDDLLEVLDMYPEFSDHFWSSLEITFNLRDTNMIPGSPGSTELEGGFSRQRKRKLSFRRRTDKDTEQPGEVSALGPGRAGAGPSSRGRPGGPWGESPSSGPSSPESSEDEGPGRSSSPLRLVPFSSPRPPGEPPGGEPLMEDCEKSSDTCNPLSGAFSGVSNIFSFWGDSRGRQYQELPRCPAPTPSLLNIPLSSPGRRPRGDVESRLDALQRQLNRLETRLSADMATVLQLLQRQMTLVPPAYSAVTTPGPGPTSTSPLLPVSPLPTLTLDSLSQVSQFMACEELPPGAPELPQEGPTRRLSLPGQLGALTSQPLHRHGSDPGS
Method: hERG Assay. The objective of the hERG study is to assess the effects of the test article on the rapidly activating inward rectifying potassium current (IKr) conducted by hERG (human ether-a-go-go related gene) channels stably expressed in a HEK293 cell line. The method used is as follows. HEK293 cells, stably transfected with hERG cDNA, were used in the study. All experiments were performed at near-physiological temperature (35±2° C.). A positive control (60 nM terfenadine) was applied to two cells (n 2). Cells were be transferred to the recording chamber and superfused with HB-PS solution. The recording chamber and bathing solution were maintained at a temperature of 35±2° C. using a combination of in-line solution pre-heater, chamber floor heater, and feedback temperature controller. Bath temperature were measured using a thermistor probe.
Patch pipettes were made from glass capillary tubing using a P-97 micropipette puller (Sutter Instruments, CA). A commercial patch clamp amplifier was used for whole cell recordings. Before digitization, current records were low-pass filtered at one-fifth of the sampling frequency.
Cells stably expressing hERG were held at −80 mV.

[10] = 5 or 30 min incubation at 37° C.
NTR-2 [11] = molecular target: T2, NTR-2; experiment: Functional agonism: induction of cAMP and inositol phosphate production; type: cell-based
Brattleboro rats = details: orally dosed

CC(C)C[C@H](NC(=O)[C@@H](NC(=O)[C@H](Cc1ccc(O)cc1)NC(=O)[C@@H]1CCCN1C(=O)[C@H](CCCNC(=N)N)NC(=O)[C@@H](C)CCCCCN)C(C)(C)C)C(=O)O [ABS201, hLys-Arg-Pro-Tyr-t-Leu-Leu] (X1-RPY[Tle]L-OH)
EC50 (NTR-1 [1]): 3.92 ± 0.01 nM | IC50 (NTR-1 [1]): 11.2 ± 0.3 nM | affinity for the target receptor (NTR1) (NTR-1 [1]): nM affinity | binds less effectively than its parent (NTR-1 [1]): 50 fold | lower limit for the MTD (rats [2]): ≥ 100 times the ED50 | uptake in the stomach [3]: Virtually no ABS201 is taken up in the stomach | analgesic activity (% MPE) compared with morphine (rats [4]; ABS201 5 mg/kg, Morphine 5 mg/kg): comparable in extent and duration to morphine | tolerance to the analgesic activity (rats [4]; dosed daily for five days): do not become tolerant | MPE (I.P.) (rats [4]; hotplate, IP at 10 mg/kg): 100% | Tmax (I.P.) of % MPE (rats [4]; hotplate, IP at 10 mg/kg): 15-45 | MPE (oral) (rats [4]; hotplate, orally at 20 mg/kg): 39% | Tmax (Oral) of % MPE (rats [4]; hotplate, orally at 20 mg/kg): 30 | Functional NTR-1 Agonist (NTR-1 [5]): Yes | catalepsy (rats [6]; IP 5 mg/kg, 5 mg/kg): does not induce catalepsy; also recorded: does not induce a cataleptic state | catalepsy (rats [6]; Table 11): No | micronucleus study result (mouse bone marrow cells): inactive | NTR-2 affinity (NTR-2 [7]): sub-micromolar | Toxicity, dose without toxicity (single acute dose I.P.): (>100 x ED50) | Toxicity (single acute dose at 100x ED50 I.P.): No | ED50 inhibition of amphetamine-induced hyperlocomotion (rats [8]; IP): about 1 mg/kg | effect of repeated daily dosing on attenuation of d-amphetamine induced hyperlocomotion (rats [8]; IP 5 mg/kg daily, 5 days): had no effect | spontaneous locomotor activity, drug phase (rats [8]; IP, all dose groups): responded significantly lower than saline during the drug phase | effect on d-amphetamine induced hyperactivity (rats [8]; IP, all doses): significantly reduced hyperlocomotion for all doses tested | spontaneous locomotor activity, drug phase (rats [8]; oral 10, 20, 30 mg/kg): only the 10 and 30 mg/kg doses reduced spontaneous locomotor activity | effect on d-amphetamine induced hyperlocomotion (rats [8]; oral 10-30 mg/kg, time points 140-180): reduced locomotor activity | hERG study result [9]: inactive | binding to plasma proteins [10]: little or no binding | Functional NTR-2 Agonist (NTR-2 [11]): Yes | reversal of PPI deficit (Brattleboro rats): reverses PPI
